Test systems include DLD-1; DMS-114; DMS-273; LXFL 529; M19-MEL; SNB-78; XF498; HOP-18; RXF 631.
Common to all, as to assay: NCI anticancer screen, dose series, 48 h

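Following 48 hours of exposure in 96-well plates, responses at five concentrations were used to interpolate endpoints linearly. GI50 is the concentration that inhibits growth by half.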 Active and inactive are the calls of the source. Cut-off read from the data, not from the text of the source: active = GI50 up to about 1.1 µM and inactive = higher.

For `CC1(C)C(=O)C(C)(C)C1=NN`, the GI50 in the assay on DLD-1, in the assay with DMS-114, in the assay with DMS-273, with LXFL 529, with M19-MEL and in the assay on SNB-78 was > 100 µM (inactive) throughout. Moreover, the GI50 in the assay with XF498 was > 100 µM (inactive).
Consider `COc1cc2c(cc1O)C=NCC2`, for which the GI50 in the assay on DLD-1, in the assay with DMS-114, in the assay on DMS-273, in the assay on LXFL 529, with M19-MEL and in the assay on SNB-78 was > 100 µM (inactive) each time. Also, the GI50 with XF498 was > 100 µM (inactive).
Consider `CCCCCCCCCCCCCCCc1nnc(SCC(=O)O)[nH]1`, for which the GI50 in the assay on DLD-1 is 23.4 µM (inactive); in the assay with HOP-18, > 100 µM (inactive); in the assay with LXFL 529, 22.8 µM (inactive); in the assay on RXF 631, 19.6 µM (inactive); with SNB-78, > 100 µM (inactive); in the assay on XF498, 65.8 µM (inactive).
On to `O=[N+]([O-])c1ccc(C[P+]2(c3ccccc3)CCCCC2)cc1.[O-][Cl+3]([O-])([O-])[O-]`, for which the GI50 is > 100 µM (inactive) with DLD-1; > 100 µM (inactive) with DMS-114; > 100 µM (inactive) in the assay on DMS-273; > 100 µM (inactive) with HOP-18; 97.7 µM (inactive) in the assay on LXFL 529; < 0.01 µM (active) with XF498.
On to `CCSC(SCC)=C1C(=O)N(c2ccccc2)N=C1C`, for which the GI50 is 11.8 µM (inactive) in the assay on DLD-1; 16.1 µM (inactive) in the assay on DMS-273; 13.2 µM (inactive) in the assay with HOP-18; 10 µM (inactive) in the assay with LXFL 529; 0.378 µM (active) in the assay with M19-MEL; 18.6 µM (inactive) in the assay with SNB-78. In addition, the GI50 with XF498 was 10.6 µM (inactive).
Take `N#C/C(=C(/S)Nc1ccccc1)c1nc2ccccc2[nH]1`: the GI50 in the assay with DLD-1, in the assay on DMS-114, in the assay on DMS-273, in the assay with HOP-18, with LXFL 529 and in the assay with M19-MEL was > 10 µM (inactive) in each case. The GI50 in the assay on XF498 was > 10 µM (inactive).
Take `CC1(O)CCC2(C)C(=O)C1(C)CCC21OCCO1` (stereo unspecified): the GI50 in the assay with DLD-1, in the assay on DMS-114, in the assay on DMS-273, in the assay on HOP-18, in the assay with LXFL 529 and in the assay on M19-MEL was > 100 µM (inactive) in each case. For the same compound, in the assay with XF498, the GI50 is > 100 µM (inactive).
As to `O=C1NC(=O)C2C3C=CC(C12)C1C2C(=O)NC(=O)C2C31` (stereo unspecified), the GI50 is 228 µM (inactive) in the assay with DLD-1; 125 µM (inactive) with DMS-114; 116 µM (inactive) in the assay on DMS-273; 222 µM (inactive) with HOP-18; 177 µM (inactive) with M19-MEL; 204 µM (inactive) in the assay with SNB-78. In the assay on XF498, the GI50 is 143 µM (inactive).
On to `COC(=O)Cc1c([C@@]2(C)CCCC(C)(C)C2)ccc2c1C(=O)OC2`, for which the GI50 is 3.62 µM (inactive) in the assay with DLD-1; 3.96 µM (inactive) in the assay with DMS-114; 5.43 µM (inactive) in the assay on DMS-273; 18.3 µM (inactive) with HOP-18; 7.29 µM (inactive) with LXFL 529; 15.1 µM (inactive) in the assay with M19-MEL. Besides, the figures for the GI50 in the assay on RXF 631 and with SNB-78 were 12.9 µM (inactive) and 14.9 µM (inactive), respectively.
Take `COc1ccc(C[C@]23CCC(=O)N2CCc2cc(OC)c(O)cc23)cc1O`: the GI50 with DMS-114, with DMS-273, in the assay on HOP-18, in the assay with LXFL 529, in the assay on M19-MEL and with RXF 631 was > 100 µM (inactive) each time. In addition, the GI50 in the assay with SNB-78 was > 100 µM (inactive).
Regarding `C=C1C(C)C2C(Cc3ccccc3)NC(=O)C23C(OC(C)=O)C=CC(C)(O)C(=O)C(C)C/C=C/C3C1O` (stereo unspecified), the GI50 with DLD-1 was 0.78 µM (active); in the assay on DMS-114, 8.71 µM (inactive); in the assay with DMS-273, 1.96 µM (inactive); in the assay with LXFL 529, 3.14 µM (inactive); with M19-MEL it was 16.1 µM (inactive); with RXF 631, 0.117 µM (active). Also, the figures for the GI50 in the assay with SNB-78 and with XF498 were 0.116 µM (active) and 2.01 µM (inactive), respectively.
As to `CN(C)/C(N)=N\C#N`, the GI50 is 48.9 µM (inactive) with DLD-1; 93.8 µM (inactive) in the assay on DMS-114; > 100 µM (inactive) in the assay on DMS-273; > 100 µM (inactive) in the assay with HOP-18; > 100 µM (inactive) in the assay with LXFL 529; 83.6 µM (inactive) in the assay on M19-MEL. Besides, the GI50 in the assay on RXF 631 and in the assay with SNB-78 was > 100 µM (inactive) each time.
Take `Cc1ccc(S(=O)(=O)Nc2cccc3c(=O)nc[nH]c23)cc1`: the GI50 in the assay on DMS-114 is 31.2 µM (inactive); in the assay on DMS-273, > 100 µM (inactive); in the assay on HOP-18 it was 53 µM (inactive); in the assay with LXFL 529 it was > 86.7 µM (inactive); with M19-MEL, > 100 µM (inactive); with SNB-78 it was > 100 µM (inactive). Further, the GI50 with XF498 was > 100 µM (inactive).
For `COc1ccc(C(CCC(C)=O)C(=O)O)cc1OC` (stereo unspecified), the GI50 in the assay with DLD-1, in the assay on DMS-273, in the assay on HOP-18, in the assay on M19-MEL, in the assay with SNB-78 and in the assay with XF498 was > 100 µM (inactive) in each case.
`Cc1cc2c3c(coc3c1-c1c(C)cc3c4c(coc14)C(=O)C(O)=C3C(C)C)C(=O)C(O)=C2C(C)C`: the GI50 is 4.6 µM (inactive) with DLD-1; 2.63 µM (inactive) in the assay with DMS-114; 4 µM (inactive) in the assay on DMS-273; 3.77 µM (inactive) in the assay on LXFL 529; 7.03 µM (inactive) in the assay with M19-MEL; 8.71 µM (inactive) with RXF 631. Besides, the GI50 in the assay on SNB-78 was 9.44 µM (inactive); in the assay on XF498 it was 4.79 µM (inactive).
As for `O=C1C(NCCO)=C(N2CC2)C(=O)C(NCCO)=C1N1CC1`, the GI50 in the assay with DLD-1 is > 46.2 µM (inactive); with DMS-114 it was 19.5 µM (inactive); in the assay on DMS-273, 5.46 µM (inactive); in the assay on HOP-18, > 100 µM (inactive); in the assay with LXFL 529 it was > 51.6 µM (inactive); in the assay with M19-MEL it was 28.5 µM (inactive). Besides, the GI50 in the assay with SNB-78 is > 100 µM (inactive); with XF498 it was 53.3 µM (inactive).
With `CC(=O)C1Cn2c(=O)c3cc4ccccc4cc3c(=O)n2C=C1C` (stereo unspecified), the GI50 is > 100 µM (inactive) in the assay with DLD-1; > 100 µM (inactive) with DMS-114; > 100 µM (inactive) in the assay with DMS-273; 83.4 µM (inactive) in the assay on LXFL 529; > 100 µM (inactive) in the assay with M19-MEL; > 100 µM (inactive) in the assay on RXF 631. The GI50 with SNB-78 and in the assay on XF498 was > 100 µM (inactive) each time.
As for `O=C(c1cccs1)N(C(=S)N1CCN(c2ccccn2)CC1)C1CCCCC1`, the GI50 in the assay on DLD-1 is 63.8 µM (inactive); in the assay with DMS-114, 36.9 µM (inactive); in the assay with DMS-273, 43.1 µM (inactive); with HOP-18 it was > 100 µM (inactive); with LXFL 529 it was 58.6 µM (inactive); in the assay with SNB-78, > 100 µM (inactive).
Take `CC1=C(C(=O)Nc2cc(F)c(F)cc2F)C(c2cccc([N+](=O)[O-])c2)C(C(=O)Nc2ccccc2C(F)(F)F)=C(C)N1` (stereo unspecified): the GI50 was 25.3 µM (inactive) in the assay on DLD-1; 17 µM (inactive) in the assay with DMS-114; 16.8 µM (inactive) in the assay on LXFL 529; 27.2 µM (inactive) in the assay with M19-MEL; 19.2 µM (inactive) with RXF 631; 19.5 µM (inactive) with SNB-78.
Take `Nc1cccc(S(=O)(=O)NCC(=O)O)c1`: the GI50 in the assay with DLD-1, with DMS-114, in the assay on DMS-273, in the assay with HOP-18, with LXFL 529 and with M19-MEL was > 100 µM (inactive) throughout. Also, the GI50 in the assay with RXF 631, with SNB-78 and in the assay on XF498 was > 100 µM (inactive) in each case.
On to `CCCC1C[C@H]2CCCCN2[C@H]2CCCN12` (stereo partly specified), for which the GI50 is > 50.4 µM (inactive) in the assay on DLD-1; > 51.5 µM (inactive) in the assay with DMS-114; > 61.9 µM (inactive) in the assay on DMS-273; > 100 µM (inactive) in the assay on HOP-18; > 69.3 µM (inactive) in the assay on LXFL 529; > 100 µM (inactive) in the assay with RXF 631. Further, the GI50 with SNB-78 and with XF498 was > 100 µM (inactive) each time.
`CC(C)C(=O)/C=C/c1ccc(Cl)cc1`: the GI50 in the assay with DLD-1 was 11.9 µM (inactive); in the assay with DMS-114, 16.9 µM (inactive); in the assay with DMS-273, 3.99 µM (inactive); in the assay with HOP-18, 4.9 µM (inactive); in the assay on LXFL 529, 14.9 µM (inactive); in the assay on M19-MEL, 14.4 µM (inactive). In addition, the GI50 in the assay with XF498 was 7.78 µM (inactive).
As for `CCOc1ccc(NCc2cc(OC)c(OC)c(OC)c2)cc1`, the GI50 in the assay with DLD-1 was 0.807 µM (active); with DMS-114, 0.291 µM (active).
`CCCCc1c2c(nc3c1CC/C(=C\c1ccccc1)C3=O)CCCC2`: the GI50 with DLD-1 was 3.38 µM (inactive); in the assay on DMS-114, 7.74 µM (inactive); in the assay on DMS-273, 2.59 µM (inactive); with LXFL 529, 1.74 µM (inactive); in the assay with M19-MEL, 4.72 µM (inactive); with SNB-78, 2.99 µM (inactive).
`Cc1ccc(NC(=O)CC/C(CC(=O)c2ccc(Cl)cc2)=N\NC(=O)C(=O)NN)cc1C`: the GI50 with DLD-1, with DMS-114, in the assay with DMS-273, with HOP-18, in the assay on LXFL 529 and in the assay with M19-MEL was > 100 µM (inactive) in each case. Besides, the GI50 with SNB-78 and with XF498 was > 100 µM (inactive) in each case.
For the compound `CCOP1(=O)C=CC(Cl)=C(C)C1` (stereo unspecified), the GI50 was 6.97 µM (inactive) with DLD-1; 15.6 µM (inactive) in the assay with DMS-114; 17.4 µM (inactive) in the assay on HOP-18; 12.4 µM (inactive) with LXFL 529; 21.6 µM (inactive) in the assay with M19-MEL; 18.9 µM (inactive) in the assay with SNB-78. Further, the GI50 in the assay on XF498 is 19 µM (inactive).

The values above are taken from ChEMBL document CHEMBL1201862, “PubChem BioAssay data set” (2004).
